Data as given in patent US20060153781A1, “Repair of dna mutagenic damage” (Novogen Research Pty Ltd, a Corporation, priority 2002, published 2006).
Values joined by “and” are separate entries in the source; they are usually repeats but may differ in a detail not shown here. Equal values may be shown once.

Experiments:
Assay type in all cases: in vivo
[1] = test system: metallothionein (MT) in the epidermis; assay: MT production in skin biopsies of human volunteers after UV irradiation (immunohistochemistry); details: 24 hrs after 2.5 MED SSUV
Procedure: (§1) Equol was applied to the skin of five human volunteers immediately after, and at 4 hours and 6 hours post-UV irradiation. A control lotion was also used containing no equol. Twenty-four hours after UV irradiation, skin biopsies were taken and MT production was measured using immunohistochemistry.
Approximately half of the cells in the basal epidermis constitutively expressed MT at baseline, whereas almost none of the cells in the more superficial layers of the epidermis expressed MT. At 24 hrs after exposure to 2.5 MED SSUV, there were apparent differences in the expression of MT in the basal layers of the epidermis between sections treated with equol and those treated with DMSO in base lotion (vehicle). In all 5 participants, the expression of MT was higher in the skin treated with equol, with the magnitude of the difference ranging from +4% to +21%.

[2] = test system: cyclobutane pyrimidine dimers (CPD) in skin of hairless mice; assay: Induction of epidermal CPD-positive cells in skin of hairless mice exposed to SSUV (immunohistochemistry); details: for reduction in the number of CPD compared with control group (vehicle alone): equol lotion 20 μM for 7 days prior and 5 days after SSUV, p<0.05; for CPD + ve cells/linear cm: hairless mice; for reduction of dimers: equol applied immediately after SSUV exposure and continuing for 5 d
Source text: The effect of equol on the induction of CPD was examined in the skin of hairless mice (a standard model for human dermatological investigations) exposed to solar simulated ultraviolet radiation (SSUV). At various time points after SSUV, dorsal skin was excised, fixed for 6 hr in a standard fixing medium (HistoChoice™, Amersco Inc, Solon, Ohio, USA), processed and paraffin-embedded. Pyrimidine dimers were detected immunohistochemically using citric acid antigen retrieval and the H3 anti-pyrimidine dimer antibody. The number of dimer-positive cells was counted manually in 30 fields per mouse, at 40× magnification.

[3] = test system: CPDs in the epidermis; assay: Cyclobutane pyrimidine dimer formation in skin biopsies of human volunteers after UV irradiation (immunohistochemistry)
Procedure: as §1
The skin biopsies from the five human volunteers from Example 2 were tested for cyclobutane pyrimidine dimer formation using immunohistochemistry.

[4] = test system: p53 in the epidermis; assay: P53 staining in skin biopsies of human volunteers following UV irradiation
Procedure: as §1
The skin biopsies from the five human volunteers from Example 2 were tested for P53 staining following UV irradiation.

[5] = equol 200 μM topical, one row per subject (five volunteers)
[6] = 24 hrs after 2.5 MED SSUV, lotion containing equol 200 μM, one row per subject (five volunteers)
[7] = 24 hrs after 2.5 MED SSUV, equol 200 μM topical, one row per subject (five volunteers)

Oc1ccc(C2COc3cc(O)ccc3C2)cc1 (stereo not shown) [equol]
expression of MT in skin treated with equol vs vehicle (in words) ([1]; all 5 participants): higher
MT staining, Basal epidermis, % positive cells [1, 5]: 76% and 59% and 69% and 77% and 60%
MT staining, Basal epidermis, neg (cell count) [1, 5]: 118 and 188 and 239 and 154 and 157
MT staining, Basal epidermis, pos (cell count) [1, 5]: 380 and 271 and 531 and 522 and 233
MT staining, Total epidermis, % positive cells [1, 5]: 56% and 50% and 63% and 62% and 51%
MT staining, Total epidermis, neg (cell count) [1, 5]: 303 and 270 and 315 and 323 and 225
MT staining, Total epidermis, pos (cell count) [1, 5]: 382 and 271 and 539 and 527 and 234
MT staining, Upper epidermis, % positive cells [1, 5]: 1% (2×) and 0% and 10% and 3%
MT staining, Upper epidermis, neg (cell count) [1, 5]: 185 and 82 and 76 and 169 and 68
MT staining, Upper epidermis, pos (cell count) [1, 5]: 2 and 0 and 8 and 5 and 1
reduction in the number of CPD compared with control group (vehicle alone) ([2]; 1 hour after SSUV): 54%
CPD + ve cells/linear cm ([2]; 1 hr post-SSUV, equol lotion 20 μM daily for 7 days prior to and following 1×3 MED SSUV): 238 ± 22 cells/linear cm
reduction of dimers ([2]; 1 day post-irradiation): 23%
reduction in the number of CPD compared with control group (vehicle alone) ([2]; 24 hours after SSUV): 50%
CPD + ve cells/linear cm ([2]; 24 hr post-SSUV, equol lotion 20 μM daily for 7 days prior to and following 1×3 MED SSUV): 167 ± 17 cells/linear cm
reduction in the number of CPD compared with control group (vehicle alone) ([2]; 48 hours after SSUV): 26%
reduction of dimers ([2]; 2 d post-irradiation, data not shown): 42%
effect on dimer induction and repair (in words) ([2]; equol lotion 20 μM daily for 7 days prior to and following 1×3 MED SSUV): reduce the initial induction of dimers, and to enhance the rate of their repair
CPD staining, Basal epidermis, % positive cells [3, 6]: 15% and 0% and 10% and 25% (2×)
CPD staining, Basal epidermis, neg (cell count) [3, 6]: 94 and 279 and 181 and 134 and 125
CPD staining, Basal epidermis, pos (cell count) [3, 6]: 16 and 1 and 21 and 44 and 41
CPD staining, Total epidermis, % positive cells [3, 6]: 19% and 5% and 25% and 31% (2×)
CPD staining, Total epidermis, neg (cell count) [3, 6]: 164 and 349 and 279 and 213 and 188
CPD staining, Total epidermis, pos (cell count) [3, 6]: 39 and 18 and 92 and 94 and 85
CPD staining, Upper epidermis, % positive cells [3, 6]: 25% and 20% and 42% and 39% and 41%
CPD staining, Upper epidermis, neg (cell count) [3, 6]: 70 (2×) and 98 and 79 and 63
CPD staining, Upper epidermis, pos (cell count) [3, 6]: 23 and 17 and 71 and 50 and 44
CPD-positive cells, equol lotion vs DMSO in base lotion (vehicle) (in words) ([3]; 24 hrs after UV exposure, 4 out of 5 participants): proportionally less CPD-positive cells
CPD damage, data from all participants pooled (in words) ([3]; at 24 hours, pooled participants): moderately lower levels of CPD damage
p53 staining, Basal epidermis, % positive cells [4, 7]: 22% and 8% and 11% and 6% and 26%
p53 staining, Basal epidermis, neg (cell count) [4, 7]: 161 and 172 and 250 and 140 and 118
p53 staining, Basal epidermis, pos (cell count) [4, 7]: 46 and 15 and 31 and 9 and 41
p53 staining, Total epidermis, % positive cells [4, 7]: 26% and 21% and 9% and 4% and 25%
p53 staining, Total epidermis, neg (cell count) [4, 7]: 270 and 337 and 500 and 287 and 227
p53 staining, Total epidermis, pos (cell count) [4, 7]: 94 and 87 and 50 and 13 and 76
p53 staining, Upper epidermis, % positive cells [4, 7]: 31% and 30% and 7% and 3% and 24%
p53 staining, Upper epidermis, neg (cell count) [4, 7]: 109 (2×) and 165 and 250 and 147
p53 staining, Upper epidermis, pos (cell count) [4, 7]: 48 and 72 and 19 and 4 and 35
percentage of p53 expression in upper and/or basal epidermis (in words) ([4]; 24 hrs after UV exposure, equol treated vs vehicle): reduced in four out of five equol treated subjects
reduction of percentage of p53 staining compared with vehicle controls ([4]; subjects N13PDO and N14GBO, 24 hrs after UV exposure, 'generally'): more than 50%
